Data published in patent publication US9931373B2, “Method of reducing cancer cell proliferation by administering recombinant alpha-fetoprotein” (priority 2005, dated 2018).
Values belong to the molecule of their own block, whether it stands above or below them.

Experiments:
[1] = test system: Human breast cancer cells MCF-7; assay: Combined treatment of MCF-7 cells with chemotherapeutic agents and rhAFP, MTT or H3-thymidine; type: cell-based; conditions: MCF-7, 72 hrs, agent with addition of 0.1 mg/ml of rhAFP, suboptimal doses, FIG. 8
Experimental: Cell proliferation was assessed by H3-thymidine incorporation assay or by MTT technique.
Human breast cancer cells MCF-7 were plated onto 96-well plastic wells (Costar) in 10^4 cells/ml in DMEM medium with addition of 2% fetal calf serum and were treated during 72 hrs with one of chemotherapeutic agents: doxorubicin, cysplatin, etoposide, metatrexate or those with addition of 0.1 mg/ml of rhAFP. Cytotoxic effect was estimated by MTT assay or H3-thymidine incorporation assay. It was observed synergistic enhance of the total tumor-suppressive effect in suboptimal doses of all agents in the presence of AFP (FIG. 8).

tumor cells = assay: Combined administration of rhAFP and plant-derived compounds, suppression of tumor cell growth; type: cell-based; conditions: FIG. 12B, C
rhAFP = biological target: T1, rhAFP (Homo sapiens, UniProt P02771); assay: Formation of noncovalent complexes with rhAFP, absorption spectra and Sephadex G-25; type: binding; conditions: steady-state absorption; curcumin 30 μM, rhAFP 5 μM to 40 μM, FIG. 12A
T1 construct: pre-pro secretion region of yeast MFalpha1 (secretion leader, removed on secretory processing) (N, cleaved yes); made in house; host or cells: Saccharomyces cerevisiae YBS723/pKX (secreted into the culture liquid)
T1 sequence (P02771 20-609): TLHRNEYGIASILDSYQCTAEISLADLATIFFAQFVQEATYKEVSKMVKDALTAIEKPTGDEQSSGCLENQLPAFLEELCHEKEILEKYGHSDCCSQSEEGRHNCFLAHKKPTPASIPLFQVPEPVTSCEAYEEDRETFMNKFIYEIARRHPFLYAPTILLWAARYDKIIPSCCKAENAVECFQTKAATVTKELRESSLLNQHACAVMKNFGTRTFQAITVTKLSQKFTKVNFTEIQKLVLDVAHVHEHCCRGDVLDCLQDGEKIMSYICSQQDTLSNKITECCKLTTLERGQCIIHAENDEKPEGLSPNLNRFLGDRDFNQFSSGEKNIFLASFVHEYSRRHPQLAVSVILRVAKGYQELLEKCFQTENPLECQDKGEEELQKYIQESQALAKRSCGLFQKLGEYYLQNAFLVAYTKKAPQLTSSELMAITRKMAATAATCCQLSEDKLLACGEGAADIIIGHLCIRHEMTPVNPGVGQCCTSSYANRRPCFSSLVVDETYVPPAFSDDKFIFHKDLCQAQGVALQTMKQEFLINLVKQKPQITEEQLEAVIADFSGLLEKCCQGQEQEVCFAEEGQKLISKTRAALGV
Experimental: Absorption spectra of aqueous solutions containing 30 μM of curcumin and various doses of rhAFP: (1) 30 μM of curcumin; (2) 30 μM of curcumin+20 μM rhAFP; (3) 30 μM of curcumin+40 μM rhAFP. Panel at the top (A): absorption spectra of non-covalent complex of rhAFP/curcumin after chromatography through a column with Sephadex G-25.
Phytochemicals are nonnutritive components of plants that are currently being studies in chemoprevention and combined therapy of cancer. […] Other plant-derived tumoricidal compounds—flavonoids, isoflavonoids, flavons, flavanones, isoflavanones have been widely investigated for their ability to suppress tumor growth in vitro. Some of them display significant homology with steroids and mimic reveal antagonistic or agonistic activity in mammals. Ability of AFP to bind isoflavanoids was documented by various researches (Deutsch H. F, 1991, Adv. Canc. Res. 56, 253-312). […] The absorption spectra of solutions containing curcumin and rhAFP were followed keeping concentration of curcumin constant 30 μM and rhAFP varied from 5 μM to 40 μM. […] FIG. 12A gives the absorption spectral changes in curcumin in the presence of rhAFP in the wavelength range of 250-550 nm. […] Whereas after addition of rhAFP the maximum of absorbance of curcumin blue-shifted from 426 to 350 nm (curve 3). […]

[2] = test system: syngeneic leukemia cells P388; assay: Syngeneic acute leukemia P388 in BDF1 mice, survival over 30 days; type: in vivo; conditions: for T (survival, days): single injection
Source text: We have studied the effect of combined treatment with AFP+Dox of acute leukemia in mice BDF1 with transplanted intrapleurally syngeneic P388 leukemia cells. BDF-1 mice (84 male, 28 mice per treatment) were implanted with lethal dose of 12×10^6 syngeneic leukemia cells P388 in the pleural region. Animals were subjected to monotherapy with Dox and combined therapy with rhAFP/Dox upon simultaneous single injection of drugs in various doses. Animal survival was compared over 30 days.

[3] = test system: cells of B-cellular lymphoma Raji; assay: Suppression of growth of Raji cells in vitro, [H3]-thymidine incorporation; type: cell-based, human; conditions: 12 hours with AFP, dose-dependent, FIG. 5
Experimental: The functional activity of rAFP and the modified forms thereof were determined according to its capability of suppressing the growth of cells of B-cellular lymphoma Raji in the culture in vitro, as earlier described (Semenkova, L. 1997, Tumor Biol. 18, 261-274; Dudich E. I., et al., 1998, Tumor Biol. 198, 30-40). Preliminarily washed by a fresh medium, Raji cells were placed into each cell of a 96-alverolar plate according to 5×10^3 in 0.1 ml of a medium RPMI-1640 in the presence of a 10% fetal calf serum, then different doses of AFP were added for 12 hours. Proliferation of the cells was measured by a standard method by the introduction of [H^3]-thymidine during the last 4 hours of culturing. For comparison, the dose-dependent reactivity was studies for two samples of AFP of embryonal origin embrAFP and yeast rAFP (FIG. 5). […] Similarly, in order to determine the activity to preparations on the base of AFP in vitro, any other lines of cancer cells may be used that are sensitive to the suppressive action of AFP, such as human hepatocarcinoma HepG2, breast cancer MCF-7, prostate cancer LnCap, myeloblastoma U-937 and others (Semenkova, L. 1997, Tumor Biol. 18, 261-274; Dudich E. I., et al., 1998, Tumor Biol. 198, 30-40).

Molecule: COc1cc([C@@H]2c3cc4c(cc3[C@@H](O[C@@H]3O[C@@H]5CO[C@@H](C)O[C@H]5[C@H](O)[C@H]3O)[C@H]3COC(=O)[C@H]23)OCO4)cc(OC)c1O [etoposide]
total tumor-suppressive effect of agent together with rhAFP [1]: significant synergistic tumor-suppression

Molecule: N.N.[Cl][Pt][Cl] [cysplatin]
total tumor-suppressive effect of agent together with rhAFP [1]: significant synergistic tumor-suppression

formation of noncovalent complexes with rhAFP (rhAFP): form noncovalent complexes
Molecule: O=c1c(-c2ccc(O)cc2)coc2cc(O[C@@H]3O[C@H](CO)[C@@H](O)[C@H](O)[C@H]3O)cc(O)c12 [genistin]
total tumor suppressive effect upon combined treatment with rhAFP (tumor cells): significant enhance of the total tumor suppressive effect

Molecule: CN(Cc1cnc2nc(N)nc(N)c2n1)c1ccc(C(=O)N[C@@H](CCC(=O)O)C(=O)O)cc1 [metatrexate]
total tumor-suppressive effect of agent together with rhAFP [1]: significant synergistic tumor-suppression

formation of noncovalent complexes with rhAFP (rhAFP): form noncovalent complexes
Molecule: COc1cc(/C=C/C(=O)CC(=O)/C=C/c2ccc(O)c(OC)c2)ccc1O [curcumin]
total tumor suppressive effect upon combined treatment with rhAFP (tumor cells): significant enhance of the total tumor suppressive effect

Molecule: COc1cccc2c1C(=O)c1c(O)c3c(c(O)c1C2=O)C[C@@](O)(C(=O)CO)C[C@@H]3O[C@H]1C[C@H](N)[C@H](O)[C@H](C)O1 [Dox, doxorubicin]
Survival more 30 days ([2]; Dox 3.0 mg/kg): 0
T/C % ([2]; Dox 3.0 mg/kg): 303%
T (survival, days) ([2]; Dox 3.0 mg/kg): [13.9/17.1] 19.7 days
Survival more 30 days ([2]; Dox 5.0 mg/kg): 0
T/C % ([2]; Dox 5.0 mg/kg): 315%
T (survival, days) ([2]; Dox 5.0 mg/kg): [17.0/22.4] 20.5 days
Survival more 30 days ([2]; Dox 1.o mg/kg): 0
T/C % ([2]; Dox 1.o mg/kg): 238%
T (survival, days) ([2]; Dox 1.o mg/kg): 6.5 [6.2/6.8] 15.5 days
total tumor-suppressive effect of agent together with rhAFP [1]: significant synergistic tumor-suppression

B1: embrAFP: purified AFP of embryonal origin, obtained from embryonic serum (protein, UniProt P02771 19-609, looked up)
Alpha-fetoprotein: RTLHRNEYGIASILDSYQCTAEISLADLATIFFAQFVQEATYKEVSKMVKDALTAIEKPTGDEQSSGCLENQLPAFLEELCHEKEILEKYGHSDCCSQSEEGRHNCFLAHKKPTPASIPLFQVPEPVTSCEAYEEDRETFMNKFIYEIARRHPFLYAPTILLWAARYDKIIPSCCKAENAVECFQTKAATVTKELRESSLLNQHACAVMKNFGTRTFQAITVTKLSQKFTKVNFTEIQKLVLDVAHVHEHCCRGDVLDCLQDGEKIMSYICSQQDTLSNKITECCKLTTLERGQCIIHAENDEKPEGLSPNLNRFLGDRDFNQFSSGEKNIFLASFVHEYSRRHPQLAVSVILRVAKGYQELLEKCFQTENPLECQDKGEEELQKYIQESQALAKRSCGLFQKLGEYYLQNAFLVAYTKKAPQLTSSELMAITRKMAATAATCCQLSEDKLLACGEGAADIIIGHLCIRHEMTPVNPGVGQCCTSSYANRRPCFSSLVVDETYVPPAFSDDKFIFHKDLCQAQGVALQTMKQEFLINLVKQKPQITEEQLEAVIADFSGLLEKCCQGQEQEVCFAEEGQKLISKTRAALGV
cytostatic activity, inhibition of growth of Raji cells [3]: expressed cytostatic activity
